# In article PMC3962378, “Molecular Mechanism of Strict Substrate Specificity of an Extradiol Dioxygenase, DesB, Derived from Sphingobium sp. SYK-6” (PLoS ONE, 2014):
# Biological target: T1, DesB (Sphingomonas paucimobilis, UniProt Q5NTE5)
# T1 construct: overexpressed in E. coli, purified to near homogeneity; swapped homodimer with active sites at the subunit interface; 418 residues; Fe(II) form
# T1 sequence (Q5NTE5 1-418): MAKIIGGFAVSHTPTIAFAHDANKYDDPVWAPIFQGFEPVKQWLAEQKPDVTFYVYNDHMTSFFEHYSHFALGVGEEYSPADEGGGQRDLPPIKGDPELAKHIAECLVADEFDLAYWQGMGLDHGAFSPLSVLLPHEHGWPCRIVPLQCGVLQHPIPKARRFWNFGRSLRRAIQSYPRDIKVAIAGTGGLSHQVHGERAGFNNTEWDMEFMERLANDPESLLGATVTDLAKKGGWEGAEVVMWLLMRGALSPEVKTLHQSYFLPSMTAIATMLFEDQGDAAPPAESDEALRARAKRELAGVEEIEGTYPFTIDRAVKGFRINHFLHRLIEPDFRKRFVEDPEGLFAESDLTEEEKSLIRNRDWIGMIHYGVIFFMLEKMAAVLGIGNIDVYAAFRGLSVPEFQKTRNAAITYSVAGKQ
# Assay: X-ray crystal structure (soak)
# Assay type: binding
# Conditions: anaerobic, pH 7.75, Fe(II), active site, 2.40 A
Compound,"X-ray crystal structure (soak) (10 mM PCA soak, flipped non-productive binding, not turned over)","X-ray crystal structure (soak) (10 mM gallate soak, further complexes 3WKU, 3WPM (co-crystal), 3WR3, 3WR4)"
O=C(O)c1ccc(O)c(O)c1 [PCA],bound PCA was found in the active site of the anaerobic DesB-PCA complex,–
O=C(O)c1cc(O)c(O)c(O)c1 [gallate],–,gallate is bound to the active site through several hydrogen bonds
